The values below come from patent publication US20180256515A1, “ORAL AMPHETAMINE COMPOSITION” (Adare Pharmaceuticals, Inc., priority 2017, published 2018).

The data set is described as follows: Water solubility (statement).

The structures appear in SMILES notation. Structures can show the parent of a compound that is named as a salt. Where two headings read alike, the source gives them in different places.

On to `CC(N)Cc1ccccc1` (racemic) [Amphetamine sulfate, racemic amphetamine sulfate], for which the solubility entry is recorded as “freely soluble”. For the same compound, the solubility entry (listed as Racemic amphetamine sulfate) is recorded as “freely water soluble”.
